# Target: Huntingtin (Homo sapiens, UniProt P42858)
# Test: Inhibition of Huntingtin protein (unknown origin) incubated for overnight in presence of MW1/MAB2166 monoclonal antibody by MSD assay
# Huntingtin, sequence (P42858 whole entry): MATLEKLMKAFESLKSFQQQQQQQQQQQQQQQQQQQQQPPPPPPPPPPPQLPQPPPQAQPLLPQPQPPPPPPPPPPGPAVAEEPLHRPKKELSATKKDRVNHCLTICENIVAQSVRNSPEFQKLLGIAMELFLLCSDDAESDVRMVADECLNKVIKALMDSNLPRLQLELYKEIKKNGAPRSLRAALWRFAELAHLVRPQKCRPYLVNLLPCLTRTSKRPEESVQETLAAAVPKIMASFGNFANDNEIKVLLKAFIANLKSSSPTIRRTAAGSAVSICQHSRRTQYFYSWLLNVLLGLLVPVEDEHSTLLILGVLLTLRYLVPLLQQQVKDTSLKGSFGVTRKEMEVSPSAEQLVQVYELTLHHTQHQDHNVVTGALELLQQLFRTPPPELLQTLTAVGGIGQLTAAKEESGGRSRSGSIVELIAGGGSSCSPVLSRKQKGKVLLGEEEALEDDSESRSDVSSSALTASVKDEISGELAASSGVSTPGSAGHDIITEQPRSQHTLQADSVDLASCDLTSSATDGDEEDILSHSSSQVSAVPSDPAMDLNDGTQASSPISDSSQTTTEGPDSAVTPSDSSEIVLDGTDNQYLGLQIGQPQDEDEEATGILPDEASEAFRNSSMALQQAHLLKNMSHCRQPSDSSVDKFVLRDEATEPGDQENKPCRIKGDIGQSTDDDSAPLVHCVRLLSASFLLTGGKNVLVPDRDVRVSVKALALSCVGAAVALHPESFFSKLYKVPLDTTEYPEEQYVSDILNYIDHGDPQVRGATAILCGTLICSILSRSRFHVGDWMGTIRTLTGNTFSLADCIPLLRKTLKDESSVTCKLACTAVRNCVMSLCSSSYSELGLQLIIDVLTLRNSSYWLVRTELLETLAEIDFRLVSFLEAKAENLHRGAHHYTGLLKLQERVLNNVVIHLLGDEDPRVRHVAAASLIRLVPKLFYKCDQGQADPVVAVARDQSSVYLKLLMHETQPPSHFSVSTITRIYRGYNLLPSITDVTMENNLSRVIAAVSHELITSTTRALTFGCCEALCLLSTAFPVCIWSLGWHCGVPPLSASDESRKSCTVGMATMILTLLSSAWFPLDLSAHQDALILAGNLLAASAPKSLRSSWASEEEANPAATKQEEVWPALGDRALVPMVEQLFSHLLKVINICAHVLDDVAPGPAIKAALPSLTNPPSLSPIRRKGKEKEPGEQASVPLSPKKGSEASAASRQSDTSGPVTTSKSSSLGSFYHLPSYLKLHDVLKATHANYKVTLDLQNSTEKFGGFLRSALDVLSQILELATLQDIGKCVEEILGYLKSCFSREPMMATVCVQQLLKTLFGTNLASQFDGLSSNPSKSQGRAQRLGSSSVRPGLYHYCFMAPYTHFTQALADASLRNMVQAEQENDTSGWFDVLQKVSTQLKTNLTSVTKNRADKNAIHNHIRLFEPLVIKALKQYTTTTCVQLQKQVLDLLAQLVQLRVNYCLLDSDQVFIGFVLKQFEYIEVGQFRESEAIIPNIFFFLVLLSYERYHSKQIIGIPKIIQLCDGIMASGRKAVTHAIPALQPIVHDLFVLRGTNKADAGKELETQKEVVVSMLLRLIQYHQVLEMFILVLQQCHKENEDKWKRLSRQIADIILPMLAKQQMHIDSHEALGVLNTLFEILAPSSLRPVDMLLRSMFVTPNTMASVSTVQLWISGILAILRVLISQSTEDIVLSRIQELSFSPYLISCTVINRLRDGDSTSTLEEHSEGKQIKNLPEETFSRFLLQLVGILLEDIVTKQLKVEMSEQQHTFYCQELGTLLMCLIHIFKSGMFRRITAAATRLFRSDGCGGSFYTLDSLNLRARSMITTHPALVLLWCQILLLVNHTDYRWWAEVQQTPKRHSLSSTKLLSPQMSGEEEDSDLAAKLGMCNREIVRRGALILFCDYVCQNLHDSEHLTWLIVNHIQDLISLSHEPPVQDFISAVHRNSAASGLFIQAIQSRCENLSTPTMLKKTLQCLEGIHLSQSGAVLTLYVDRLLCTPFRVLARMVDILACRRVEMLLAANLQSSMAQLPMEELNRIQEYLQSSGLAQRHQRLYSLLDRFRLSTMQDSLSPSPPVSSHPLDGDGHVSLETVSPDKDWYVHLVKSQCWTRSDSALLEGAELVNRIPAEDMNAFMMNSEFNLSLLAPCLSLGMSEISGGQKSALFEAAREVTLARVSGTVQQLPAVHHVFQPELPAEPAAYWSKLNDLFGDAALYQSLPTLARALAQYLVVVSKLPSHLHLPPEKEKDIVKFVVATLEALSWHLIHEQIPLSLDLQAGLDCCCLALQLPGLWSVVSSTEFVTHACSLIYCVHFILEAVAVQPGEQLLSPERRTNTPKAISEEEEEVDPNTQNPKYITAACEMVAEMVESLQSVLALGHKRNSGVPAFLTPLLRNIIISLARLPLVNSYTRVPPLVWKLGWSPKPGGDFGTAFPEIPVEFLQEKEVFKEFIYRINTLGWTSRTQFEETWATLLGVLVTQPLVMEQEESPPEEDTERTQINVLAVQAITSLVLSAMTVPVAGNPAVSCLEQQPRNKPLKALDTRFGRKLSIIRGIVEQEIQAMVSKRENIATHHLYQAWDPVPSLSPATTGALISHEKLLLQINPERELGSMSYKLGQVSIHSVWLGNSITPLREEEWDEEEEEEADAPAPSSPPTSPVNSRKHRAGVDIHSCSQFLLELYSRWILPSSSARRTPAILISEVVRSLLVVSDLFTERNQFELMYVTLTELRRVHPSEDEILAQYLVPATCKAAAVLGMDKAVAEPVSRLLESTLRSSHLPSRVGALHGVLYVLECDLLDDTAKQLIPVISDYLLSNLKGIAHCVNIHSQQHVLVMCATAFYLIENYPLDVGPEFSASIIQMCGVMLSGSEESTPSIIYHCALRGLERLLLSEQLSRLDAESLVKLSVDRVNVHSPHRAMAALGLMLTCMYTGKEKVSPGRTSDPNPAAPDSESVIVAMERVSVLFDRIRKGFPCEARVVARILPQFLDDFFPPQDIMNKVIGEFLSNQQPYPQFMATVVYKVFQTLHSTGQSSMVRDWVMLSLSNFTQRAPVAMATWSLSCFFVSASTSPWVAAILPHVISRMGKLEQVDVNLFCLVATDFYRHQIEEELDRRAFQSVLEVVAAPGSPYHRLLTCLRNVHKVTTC
row,Compound,IC50 [µM]
1,Cc1cn2nc(-c3cn4cc(C5CCNCC5)nc4s3)cc(C)c2n1,≤ 0.1
2,CN(c1nc2sc(-c3ncc(-c4cn[nH]c4)nn3)nc2s1)C1CC(C)(C)NC(C)(C)C1,≤ 0.1
3,Cn1cc2cc(-c3nn4cc(C5CCNCC5)nc4s3)cc(C#N)c2n1,≤ 0.1
4,CN(c1nc2sc(-c3cnc(-c4cn[nH]c4)c4[nH]ccc34)nc2s1)C1CCNCC1,≤ 0.1
5,C[C@H]1C[C@H](Oc2nc3sc(-c4ncc(-c5nnn(C)n5)c5cc[nH]c45)nc3s2)CCN1,≤ 0.1
6,CN(c1nc2sc(-c3ncc(-c4cn[nH]c4)cc3O)nc2s1)C1CC(C)(C)NC(C)(C)C1,≤ 0.1

# Reference: ChEMBL document CHEMBL4665902, “Novel Heteroaryl Compounds for Treating Huntington's Disease” (ACS Med Chem Lett, 2020)
